We go through 12 compounds from US4803221A, “Anthracene derivatives” (priority 1987, dated 1989).

Data set [1] is described as follows: Antibacterial screening against Mycoplasma smegmatis. Format: cell-based. The source says: (§1) Antibacterial test against Mycoplasma smegmatis (S3264) and Streptococcus pyogenes (CN10) was done with slight modifications using standard agar dilution assays as outlined in Manual of Clinical Microbiology Second Ed., E. H. Lennette, E. H. Spaulding and J. P. Truant Eds., American Society for Microbiology, Washington, DC, 1974.

The test system of another data set is Candida albicans. The experiment in a line: Antifungal testing against Candida albicans (CN 1863). Format: cell-based, Candida albicans (CN1863). To be noted: Wellcotest sensitivity test agar plus 7% lysed horse blood. The source says:
Antifungal testing against Candida albicans (CN 1863) was done with slight modifications using a combination of broth and agar dilution assays as outlined in Laboratory Handbook of Medical Mycology, Chapter 6, pages 441-446, M. R. McGinnis, Academic Press, New York, NY, 1980
Medium: Wellcotest ® sensitivity test agar plus 7% lysed horse blood.

The next data set in a line: LD50 Tests. To be noted: in vivo; IP single dose, CD-1 male mouse. The text has this: |(IP single dose - CD-1 Male Mouse)
The test system of data set [2] is lymphocytic leukemia P388/0. The experiment in a line: Lymphocytic Leukemia P388/0 Test. Format: in vivo, mouse (CD2-F1). Also on record: LD20: unit: mg/kg. The following applies: ip days 1, 5, 9; for LD20: doses on a mg/kg basis; for T/C × 100% (Excluding 30 Day Survivors): median survival time treated/control, at the optimal dose of the compound (Table I), active if ≥120%. The text has this: (§2) Methods for evaluating the antitumor activity of these compounds are essentially those used in the Tumor Panel by the Developmental Therapeutics Program, Division of Cancer Treatment, National Cancer Institute, A. Goldin, et al., Methods in Cancer Research, Vol. XVI, p.165, Academic Press (1979). Some modifications, in dose level and schedule have been made to increase the testing efficiency.
(§3) CD2-F1 mice, of the same sex, weighing 20±3 g are used for this test. Control and test animals are injected intraperitoneally with a suspension of ~10^6 viable P388/0 tumor cells on day 0. In each test, several dose levels which bracket the LD20 of the compound are evaluated; each dose level group contains six animals. The test compounds are prepared either in physiologic saline containing 0.05% Tween 80 or distilled water containing 5% dextrose and are administered intraperitoneally on days 1, 5, and 9 relative to tumor implant. Doses are on a mg/kg basis according to individual animals' body weights. The day of death for each animal is recorded, the median identified for each group and the ratios of median survival time for treated (T)/control (C) Groups are calculated. The criterion for activity is T/C×100≥120%.

The subject of data set [3] is Nippostrongylus brasiliensis. Kind of data set: Anthelmintic screening against Nippostrongylus brasiliensis. The format is cell-based. The text has this: Anthelmintic testing against Nippostrongylus brasiliensis was done using methods outlined in D. C. Jenkins, R. Armitage, and T. S. Carrington, Zeitschrift for Parasitenkunde 63, 261-269 (1980)
The test system of another data set is M5076 sarcoma. The experiment in a line: M5076 Sarcoma Test. Format: in vivo, mouse (B6C3-F1). The following applies: survival; 110 mg/kg; ip days 1, 5, 9; active if ≥125%.
Source text: as §2
This sarcoma arose as a solid tumor in the ovary of a C57Bl/6 mouse and was subsequently converted to the ascitic form for intraperitoneal use. The protocol for this test is identical with that for P388/0. The B6C3-F1mouse strain is used and the criterion for activity is T/C×100≥125%.

Data set [4] concerns lymphocytic leukemia L1210. The experiment in a line: Lymphocytic Leukemia L1210 Test. Format: in vivo, mouse (CD2-F1). The following applies: median survival; ip days 1, 5, 9; dose: 3C 110, 4C 150 mg/kg; active if >125%.
Source text: as §2
The protocol for this test is identical to that for P388/0, except that the number of L1210 cells implanted on day 0 is […]. The mouse CD2-F1 strain is used, and the criterion for activity is T/C×100 >125%.

A further data set relates to Lewis lung carcinoma. The experiment in a line: Lewis Lung Carcinoma Test. Format: in vivo, mouse (BD-F1). To be noted: median survival, iv tumor cells; dosing days 1, 5, 9; dose: 3C 130, 4C 200 mg/kg; active if ≥140%.
Source text: as §2
This tumor arose spontaneously in the lung of a C57B1/6 mouse and is maintained by subcutaneous passage in that strain. The solid tumor is excised aseptically and placed in sterile saline. Pieces of viable tumor tissue are minced finely with scissors and forced through a 200 mesh stainless steel screen to disaggregate the tumor cells into a suspension. 10^6 Viable cells are injected intravenously into the tail vein of BD-F1, mice of the same sex weighing 20±3 g. In each test, several dose levels which bracket the L20 for the compound are evaluated. Ten animals are included in each dose level grup, and twenty animals in the untreated control group. The test compounds are prepared and administered on days 1, 5, and 9 as in the P388/0 protocol. The day of death for each animal is recorded, the median identified for each group and the ratios of median survival time for treated (T)/control (C) groups are calculated. The criterion for activity is T/C×100≥140%.

The test system of the next data set is Colon 38 carcinoma. Kind of data set: Colon 38 Carcinoma Test. The format is in vivo, mouse (C57Bl/6). The following applies: tumor weight, day 20; 150 mg/kg ip days 1, 5, 9; active if ≤42%.
Source text: as §2
This chemically-induced tumor arose in a C57Bl/6 mouse and is maintained as a solid tumor in that mouse strain. The subcutaneously growing solid tumor is aseptically excised from passage mice and placed in sterile saline. The tumor is trimmed free of visible necrotic and connective tissue, then divided into 2-3 mm cubes. A cube is implanted subcutaneously in the ventral thoracic region with a sterile trochar on day 0. In each test several dose levels which bracket the LD20 for the compound are evaluated. Ten animals are included in each dose level group and thirty animals in the untreated control group. The test compounds are prepared either in physiologic saline containing 0.05% Tween 80 or distilled water containing 5% dextrose and are administered intraperitoneally on days 1, 5 and 9 after tumor implant. […] At day 20, the animals are sacrificed and the longest (L) and shortest (W) dimensions of each tumor measured with vernier calipers. Tumor weight is calculated from the formula [formula] […]

Data set [5] can be described thus: Lymphocytic Leukemia P388/0 Test. Format: in vivo, mouse (CD2-F1). Also on record: LD20: unit: mg/kg. To be noted: mouse, in vivo; ip days 1, 5, 9; doses on a mg/kg basis; read-out: highest nontoxic dose where the LD20 was not determined (values in parentheses in LD20 column).
Source text: as §2, §3

A further data set has as its system Herpes simplex 1/vero. The experiment in a line: Herpes simplex 1/vero plaque inhibition screen. Format: cell-based. The following applies: plaque inhibition screen. The source says: The column headings labeled Score, Toxicity, and Zone of Inhibition refer to the plaque inhibition screen while the IC50 heading to the plaque reduction screen.
In another data set the test system is Streptococcus pyogenes. The experiment in a line: Antibacterial testing against Streptococcus pyogenes (CN10). Format: cell-based. The following applies: agar dilution.
Source text: as §1
(Agar dilution tests growth on a series of plates holding different concentrations.)

Where [6] appears, read: immature - free living stages, read-out: MIC.

Where a name gives a salt, the structure may show the parent alone. Read-outs that look alike come from different tables or passages of the source. Bounds are passed on as bounds.

What is called MIC is the lowest concentration that inhibits growth of the organism. By LD50 is commonly meant the dose expected to kill half of the subjects tested.

For the compound `CC(CO)(CO)NCc1c2ccccc2cc2ccccc12.Cl` [Example 1, 2-((9-Anthracenylmethyl)amino)-2-methyl-1,3-propanediol hydrochloride], the MIC in [1] is less than 5 µg/mL; in the data set on Candida albicans, more than 50 µg/mL; in data set [3] (setting [6]), not below 50 µg/mL. Moreover, the median lethal dose (LD50) in “LD50 Tests” amounted to 160 mg/kg. This compound also yielded an LD20 in data set [2] of 150. For the same compound, the “T/C × 100% (Excluding 30 Day Survivors)” value in data set [2] is “+130%”.

In [1], `CC(CO)(CO)NCc1c2ccccc2c(Cl)c2ccccc12.Cl` [Example 2A, 2-(((10-chloro-9-anthracenyl)methyl)amino)-2-methyl-1,3-propanediol hydrochloride] gave an MIC of 10 µg/mL. This compound showed an LD50 in “LD50 Tests” of 250 mg/kg. In [2], the LD20 came to 556 and the “T/C × 100% (Excluding 30 Day Survivors)” value was “+228%”. Further, the MIC in data set [3] (setting [6]) was not below 50 µg/mL.

As to `CSc1c2ccccc2c(CNC(C)(CO)CO)c2ccccc12.Cl` [Example 3B, 2-methyl-2-(((10-methylthio-9-anthracenyl)methyl)amino)-1,3-propanediol hydrochloride], the LD50 in “LD50 Tests” turned out to be 100 mg/kg. Besides, in data set [2], the LD20 was 120 and the “T/C × 100% (Excluding 30 Day Survivors)” value was “+262%”.

With `CSc1c2ccccc2c(CNC(C)(CO)CO)c2ccccc12` [Example 3C, 2-Methyl-2-(((10-methylthio-9-anthracenyl)methyl)amino)-1,3-propanediolmethanesulfonate], the “T/C × 100%” value with M5076 sarcoma is “+132%”. Besides, the “T/C × 100% Excluding 30 day Survivors” value in [4] is on record as “+194%”. Further, the “T/C × 100% Excluding 60 day Survivors” value in the data set on Lewis lung carcinoma is given as “+145%”. Moreover, in [2], the LD20 is given as 70 and the “T/C × 100% (Excluding 30 Day Survivors)” value was “+227%”.

For the compound `CC(CO)(CO)NCc1c2ccccc2c(CCCl)c2ccccc12` [Example 4C, 2-(((10-(2-Chloroethyl)-9-anthracenyl)methyl)amino)-2-methyl-1,3-propanediol methanesulfonate], the “T/C × 100% Excluding 30 day Survivors” value in data set [4] is recorded as “+217%”. Further, in the data set on Lewis lung carcinoma, the “T/C × 100% Excluding 60 day Survivors” value is “+154%”. In data set [2], the LD20 was 130 and the “T/C × 100% (Excluding 30 Day Survivors)” value was “+218%”. The “T/C × 100%” value with Colon 38 carcinoma was 38%.

In the case of `Cc1c2ccccc2c(CNC(C)(CO)CO)c2ccccc12` [Example 7, 2-methyl-2-(((10-methyl-9-anthracenyl)methyl)amino)-1,3-propanediol hydrochloride.1/2H2 O], in data set [2], the LD20 turned out to be 140 and the “T/C × 100% (Excluding 30 Day Survivors)” value is “+160%”. The compound further returned an MIC in data set [3] of 50 µg/mL.

`CC(CO)(CO)NCc1c2cccc(Cl)c2cc2c(Cl)cccc12.Cl` [Example 10B, 2-(((4,5-dichloro-9-anthracenyl)methyl)amino)-2-methyl-1,3-propanediol hydrochloride]: the “T/C × 100% (Excluding 30 Day Survivors)” value in [2] is “+204%”. In data set [5], the MTD was 450 mg/kg. Besides, the “Zone of Inhibition” value in the data set with Herpes simplex 1/vero is given as 32.

The compound `CC(CO)(CO)NCc1c2ccccc2cc2c(Cl)cccc12.Cl` [Example 11B, 2-(((4-Chloro-9-anthracenyl)methyl)amino)-2-methyl-1,3-propanediol hydrochloride] came in with an MIC in data set [1] not above 10 µg/mL. Besides, the MIC in the data set on Streptococcus pyogenes is not above 10 µg/mL. Also, in [2], the LD20 turned out to be 200 and the “T/C × 100% (Excluding 30 Day Survivors)” value is “+215%”.

For `COc1c2ccccc2c(CNC(C)(CO)CO)c2ccccc12.Cl` [Example 13B, 2-(((10-Methoxy-9-anthracenyl)methyl)amino)-2-methyl-1,3-propanediol hydrochloride], the MIC in [1] was not above 10 µg/mL. The compound further returned an MIC in the data set with Streptococcus pyogenes of 100 µg/mL. In data set [2], the LD20 turned out to be 120 and the “T/C × 100% (Excluding 30 Day Survivors)” value is reported as “+220%”. For the same compound, in the data set on Herpes simplex 1/vero, the “Zone of Inhibition” value is listed as 40.

`CC(CO)(CO)NCc1c2ccccc2c(OCCO)c2ccccc12` [Example 25B, 2-(((10-(2-hydroxyethoxy)-9-anthracenyl)methyl)amino)-2-methyl-1,3-propanediol hydrochloride 1/2H2 O 1/10EtOH] showed an LD50 in the data set “LD50 Tests” of 110 mg/kg. In addition, in [2], the LD20 was 67 and the “T/C × 100% (Excluding 30 Day Survivors)” value is on record as “+300%”.

Regarding `CC(CO)(CO)NCc1c2ccccc2c(-n2ccnc2)c2ccccc12` [Example 29B, 2-(((10-(1H-Imidazol-1-yl)-9-anthracenyl)methyl)amino)-2-methyl-1,3-propanediol hydrochloride 11/10 H2 O], in data set [2], the LD20 is reported as 100 and the “T/C × 100% (Excluding 30 Day Survivors)” value is on record as “+235%”. Moreover, in the data set with Herpes simplex 1/vero, the “Zone of Inhibition” value came out at 32.

In the case of `CCOCC(CO)(CO)NCc1c2ccccc2cc2ccccc12.Cl` [Example 32C, 2-((9-Anthracenylmethyl)amino)-2-ethoxymethyl-1,3-propanediol hydrochloride], in data set [2], the LD20 was 625 and the “T/C × 100% (Excluding 30 Day Survivors)” value is “+130%”. For the same compound, the “Zone of Inhibition” value in the data set with Herpes simplex 1/vero is 23.2.
